The record followed here is patent US20240409585A1, “MACROCYCLIC IMMUNOMODULATORS” (priority 2021, published 2024).

Numbered stars: 1 amine (or outer) side, 2 acyl side, 3 side chain; on linkers, the order of the positions; unused ones are H or OH. Bridge positions count the residues as written; N and C are the ends. Square brackets hold non-standard residues; d marks the D form. Peptide text beside a SMILES is read from it. * marks the point of attachment. Bip(4'-COOH) = N[C@@H](Cc1ccc(-c2ccc(C(=O)O)cc2)cc1)C(=O)O; Bip(4'-NHAc) = CC(=O)Nc1ccc(-c2ccc(C[C@H](N)C(=O)O)cc2)cc1; X17 = Nc1ccc(-c2cccc(C[C@H](N[*:1])C(=O)[*:2])c2)cn1; Phe(3-CF3) = N[C@@H](Cc1cccc(C(F)(F)F)c1)C(=O)O; Ala(morpholin-4-yl) = N[C@@H](CN1CCOCC1)C(=O)O; Phe(4-CONH2) = NC(=O)c1ccc(C[C@H](N)C(=O)O)cc1; Phe(4-COOH) = N[C@@H](Cc1ccc(C(=O)O)cc1)C(=O)O; X5 = CS(=O)(=O)NC(=O)C[C@H](N[*:1])C(=O)[*:2]; Bip = N[C@@H](Cc1ccc(-c2ccccc2)cc1)C(=O)O; Phe(3-Me) = Cc1cccc(C[C@H](N)C(=O)O)c1; Abu(3S-NH2) = C[C@H](N)[C@H](N)C(=O)O; Gla = N[C@@H](CC(C(=O)O)C(=O)O)C(=O)O; Propanoyl(3,3,3-F3) = O=C(CC(F)(F)F)*; Phe(2-F) = N[C@@H](Cc1ccccc1F)C(=O)O; Val(3-OH) = CC(C)(O)[C@H](N)C(=O)O; hPhe = N[C@@H](CCc1ccccc1)C(=O)O; Cha = N[C@@H](CC1CCCCC1)C(=O)O; Suc = O=C(CCC(=O)[*:2])[*:1]; Carboxymethyl = O=C(O)C*; NMeA = CN[C@@H](C)C(=O)O; Orn = NCCC[C@H](N)C(=O)O; Dab = NCC[C@H](N)C(=O)O; Dap = NC[C@H](N)C(=O)O; X48 = CN(C)S(=O)(=O)O*

One experiment deals with T1, Alexa fluor-647 labeled human PD-L1-Ig binding to Jurkat cell line over-expressing human PD-1 (Homo sapiens, UniProt Q15116).
T1 construct: expressed in transfected cells; host or cells: Jurkat
T1 sequence (Q15116 25-288): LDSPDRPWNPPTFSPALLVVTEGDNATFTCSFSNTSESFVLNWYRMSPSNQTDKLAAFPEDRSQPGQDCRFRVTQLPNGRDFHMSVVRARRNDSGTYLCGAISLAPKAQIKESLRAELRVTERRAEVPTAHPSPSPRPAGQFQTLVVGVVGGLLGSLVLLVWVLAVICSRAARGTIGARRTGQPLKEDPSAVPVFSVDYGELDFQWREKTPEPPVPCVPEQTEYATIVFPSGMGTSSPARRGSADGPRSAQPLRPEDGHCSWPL
The experiment in a line: Jurkat-PD-1 Cell Binding High-Content Screening Assay (CBA): Method 3 (Alexa fluor-647 labeled PD-L1-Ig). The settings on record: Jurkat-PD-1 cells, Alexa fluor-647 labeled PD-L1-Ig 177 nM; head μM; read-out: CBA Method 3 μM. Put shortly:
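Jurkat cells over-expressing human PD-1 in RPMI/10% FCS were preincubated 2 h at 37 °C with compound, then exposed 1 h to Alexa fluor-647 labeled human PD-L1-Ig (177 nM final). Cells fixed in 4% paraformaldehyde with Hoechst 33342 and binding quantified by high-content imaging.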
As for `CC(=O)Nc1ccc(-c2ccc(C[C@@H]3NC(=O)[C@H](Cc4cccc(C)c4)NC(=O)[C@H](CC(=O)O)NC(=O)[C@H](Cc4ccc(-c5ccc(C(=O)O)cc5)cc4)NC(=O)[C@H](CN4CCOCC4)NC(=O)CSC[C@@H](C(=O)N[C@@H](CCN)C(N)=O)NC(=O)[C@H](CCC(=O)O)NC(=O)[C@H](C(C)C)NC(=O)[C@H](CC4CCCCC4)NC(=O)[C@H](CCN)NC(=O)[C@@H](CC(C)C)NC(=O)[C@H](C)N(C)C(=O)[C@H](Cc4ccc(C(=O)O)cc4)NC(=O)[C@H](Cc4ccc(-c5ccccc5)cc4)NC3=O)cc2)cc1` [Example 5092] ({CH2CO}-[Ala(morpholin-4-yl)][Bip(4'-COOH)]D[Phe(3-Me)][Bip(4'-NHAc)][Bip][Phe(4-COOH)][NMeA][dL][Dab][Cha]VEC[Dab]-NH2; thioether N-14), the IC50 stood at 0.1 µM.
For `CC(C)C[C@H]1NC(=O)[C@H](C)N(C)C(=O)[C@H](Cc2ccc(C(=O)O)cc2)NC(=O)[C@H](Cc2ccc(-c3ccccc3)cc2)NC(=O)[C@H](CCc2ccccc2)NC(=O)[C@H](Cc2cccc(C(F)(F)F)c2)NC(=O)[C@H](CC(=O)O)NC(=O)[C@H](Cc2ccc(C(=O)O)cc2)NC(=O)[C@H](CN2CCOCC2)NC(=O)CSC[C@@H](C(=O)N[C@@H](CCN)C(N)=O)NC(=O)[C@H](CNC(=O)CC(F)(F)F)NC(=O)[C@H](C(C)C)NC(=O)[C@H](CC2CCCCC2)NC(=O)[C@H](CCN)NC1=O` [Example 5232] ({CH2CO}-[Ala(morpholin-4-yl)][Phe(4-COOH)]D[Phe(3-CF3)][hPhe][Bip][Phe(4-COOH)][NMeA][dL][Dab][Cha]V[Dap](Propanoyl(3,3,3-F3))C[Dab]-NH2; thioether N-14), the IC50 came out at 0.1 µM.
For the compound `CC(=O)Nc1ccc(-c2ccc(C[C@@H]3NC(=O)[C@H](Cc4cccc(C(F)(F)F)c4)NC(=O)[C@H](CC(=O)NS(C)(=O)=O)NC(=O)[C@H](Cc4ccc(C(=O)O)cc4)NC(=O)[C@H]([C@H](C)N)NC(=O)CSC[C@@H](C(=O)N[C@@H](CCN)C(N)=O)NC(=O)[C@H](CCC(N)=O)NC(=O)[C@H](C(C)C)NC(=O)[C@H](CC4CCCCC4)NC(=O)[C@H](CCN)NC(=O)[C@@H](CC(C)C)NC(=O)[C@H](C)N(C)C(=O)[C@H](Cc4ccc(C(N)=O)cc4)NC(=O)[C@H](Cc4ccc(-c5ccccc5)cc4)NC3=O)cc2)cc1` [Example 5099] ({CH2CO}-[Abu(3S-NH2)][Phe(4-COOH)][X5][Phe(3-CF3)][Bip(4'-NHAc)][Bip][Phe(4-CONH2)][NMeA][dL][Dab][Cha]VQC[Dab]-NH2; thioether N-14), the IC50 turned out to be 0.65 µM.
`CC(C)C[C@H]1NC(=O)[C@H](C)N(C)C(=O)[C@H](Cc2ccc(C(N)=O)cc2)NC(=O)[C@H](Cc2ccc(-c3ccccc3)cc2)NC(=O)[C@H](Cc2ccc(C(=O)O)cc2)NC(=O)[C@H](Cc2cccc(C(F)(F)F)c2)NC(=O)[C@H](CC(=O)OS(=O)(=O)N(C)C)NC(=O)[C@H](Cc2ccc(C(=O)O)cc2)NC(=O)[C@H]([C@H](C)N)NC(=O)CSC[C@@H](C(=O)N[C@@H](CCN)C(N)=O)NC(=O)[C@H](CC(N)=O)NC(=O)[C@H](C(C)C)NC(=O)[C@H](CC2CCCCC2)NC(=O)[C@H](CCN)NC1=O` [Example 5113] ({CH2CO}-[Abu(3S-NH2)][Phe(4-COOH)]D(X48)[Phe(3-CF3)][Phe(4-COOH)][Bip][Phe(4-CONH2)][NMeA][dL][Dab][Cha]VNC[Dab]-NH2; thioether N-14): the IC50 was found to be 0.15 µM.
With `Cc1cccc(C[C@@H]2NC(=O)[C@H](CC(=O)O)NC(=O)[C@H](Cc3ccc(OCC(=O)O)cc3)NC(=O)[C@H](CC3CCCCC3)NC(=O)CSC[C@@H](C(=O)N[C@@H](CCN)C(N)=O)NC(=O)[C@H](Cc3cnc[nH]3)NC(=O)[C@H](C(C)(C)O)NC(=O)[C@H](CC3CCCCC3)NC(=O)[C@H](CCN)NC(=O)[C@@H](CC(C)C)NC(=O)[C@H](C)N(C)C(=O)[C@H](CCC(N)=O)NC(=O)[C@H](Cc3ccc(-c4ccccc4)cc3)NC(=O)[C@H](CCc3ccccc3)NC2=O)c1` [Example 5277] ({CH2CO}-[Cha]Y(Carboxymethyl)D[Phe(3-Me)][hPhe][Bip]Q[NMeA][dL][Dab][Cha][Val(3-OH)]HC[Dab]-NH2; thioether N-14), the IC50 came to 0.03 µM.
With `Cc1cccc(C[C@@H]2NC(=O)[C@H](CC(=O)O)NC(=O)[C@H](Cc3ccc(OCC(=O)O)cc3)NC(=O)[C@H](CN3CCOCC3)NC(=O)CSC[C@@H](C(=O)N[C@@H](CCN)C(N)=O)NC(=O)[C@H](CCCN)NC(=O)[C@H](C(C)C)NC(=O)[C@H](CC3CCCCC3)NC(=O)[C@H](CCN)NC(=O)[C@@H](CC(C)C)NC(=O)[C@H](C)N(C)C(=O)[C@H](CCC(N)=O)NC(=O)[C@H](Cc3ccc(-c4ccccc4)cc3)NC(=O)[C@H](Cc3cccc(-c4ccc(N)nc4)c3)NC2=O)c1` [Example 5103] ({CH2CO}-[Ala(morpholin-4-yl)]Y(Carboxymethyl)D[Phe(3-Me)][X17][Bip]Q[NMeA][dL][Dab][Cha]V[Orn]C[Dab]-NH2; thioether N-14), the IC50 is 0.38 µM.
Turning to `Cc1cccc(C[C@@H]2NC(=O)[C@H](CC(=O)O)NC(=O)[C@H](Cc3ccc(OCC(=O)O)cc3)NC(=O)[C@H](Cc3ccccc3F)NC(=O)CSC[C@@H](C(=O)N[C@@H](CCN)C(N)=O)NC(=O)[C@H](CCCN)NC(=O)[C@H](C(C)C)NC(=O)[C@H](CC3CCCCC3)NC(=O)[C@H](CCN)NC(=O)[C@@H](CC(C)C)NC(=O)[C@H](C)N(C)C(=O)[C@H](CCC(N)=O)NC(=O)[C@H](Cc3ccc(-c4ccccc4)cc3)NC(=O)[C@H](Cc3ccc(C(=O)O)cc3)NC2=O)c1` [Example 5293] ({CH2CO}-[Phe(2-F)]Y(Carboxymethyl)D[Phe(3-Me)][Phe(4-COOH)][Bip]Q[NMeA][dL][Dab][Cha]V[Orn]C[Dab]-NH2; thioether N-14), the IC50 worked out at 0.06 µM.
Turning to `CC(C)C[C@H]1NC(=O)[C@H](C)N(C)C(=O)[C@H](CCC(N)=O)NC(=O)[C@H](Cc2ccc(-c3ccccc3)cc2)NC(=O)[C@H](Cc2ccc(OCC(=O)O)cc2)NC(=O)[C@H](Cc2cccc(C(F)(F)F)c2)NC(=O)[C@H](CC(=O)O)NC(=O)[C@H](CCc2ccccc2)NC(=O)[C@H](CN2CCOCC2)NC(=O)CSC[C@@H](C(=O)N[C@@H](CCN)C(N)=O)NC(=O)[C@H](CCCN)NC(=O)[C@H](C(C)C)NC(=O)[C@H](CC2CCCCC2)NC(=O)[C@H](CCN)NC1=O` [Example 5264] ({CH2CO}-[Ala(morpholin-4-yl)][hPhe]D[Phe(3-CF3)]Y(Carboxymethyl)[Bip]Q[NMeA][dL][Dab][Cha]V[Orn]C[Dab]-NH2; thioether N-14), the IC50 worked out at 0.1 µM.

Still in this experiment, the particulars now being: Jurkat-PD-1 cells, Alexa fluor-647 labeled PD-L1-Ig 177 nM; nM; read-out: CBA Method 3.
On to `CC(C)C[C@H]1NC(=O)[C@H](C)N(C)C(=O)[C@H](Cc2ccc(C(=O)O)cc2)NC(=O)[C@H](Cc2ccc(-c3ccccc3)cc2)NC(=O)[C@H](Cc2ccc(C(=O)O)cc2)NC(=O)[C@H](Cc2cccc(C(F)(F)F)c2)NC(=O)[C@H](CC(=O)O)NC(=O)[C@H](Cc2ccc(C(=O)O)cc2)NC(=O)[C@H](CN2CCOCC2)NC(=O)CSC[C@@H](C(=O)N[C@@H](CCN)C(N)=O)NC(=O)[C@H](CNC(=O)CCC(=O)O)NC(=O)[C@H](C(C)C)NC(=O)[C@H](CC2CCCCC2)NC(=O)[C@H](CCN)NC1=O` [Example 5144] ({CH2CO}-[Ala(morpholin-4-yl)][Phe(4-COOH)]D[Phe(3-CF3)][Phe(4-COOH)][Bip][Phe(4-COOH)][NMeA][dL][Dab][Cha]V[Dap](Suc)C[Dab]-NH2; thioether N-14), for which the IC50 turned out to be 0.0097 µM.
With `Cc1cccc(C[C@@H]2NC(=O)[C@H](CC(=O)O)NC(=O)[C@H](Cc3ccc(C(=O)O)cc3)NC(=O)[C@H](CN3CCOCC3)NC(=O)CSC[C@@H](C(=O)N[C@@H](CCN)C(N)=O)NC(=O)[C@H](CCC(=O)O)NC(=O)[C@H](C(C)C)NC(=O)[C@H](CC3CCCCC3)NC(=O)[C@H](Cc3cnc[nH]3)NC(=O)[C@@H](CC(C)C)NC(=O)[C@H](C)N(C)C(=O)[C@H](Cc3ccc(C(=O)O)cc3)NC(=O)[C@H](Cc3ccc(-c4ccccc4)cc3)NC(=O)[C@H](Cc3ccc(C(=O)O)cc3)NC2=O)c1` [Example 5254] ({CH2CO}-[Ala(morpholin-4-yl)][Phe(4-COOH)]D[Phe(3-Me)][Phe(4-COOH)][Bip][Phe(4-COOH)][NMeA][dL]H[Cha]VEC[Dab]-NH2; thioether N-14), the IC50 is 0.0013 µM.
The same measure, in the same setting: the same measure for `CC(=O)Nc1ccc(-c2ccc(C[C@@H]3NC(=O)[C@H](Cc4cccc(C(F)(F)F)c4)NC(=O)[C@H](CC(=O)O)NC(=O)[C@H](Cc4ccc(C(=O)O)cc4)NC(=O)[C@H](CC(C)C)NC(=O)CSC[C@@H](C(=O)N[C@@H](CCN)C(N)=O)NC(=O)[C@H](CC(N)=O)NC(=O)[C@H](C(C)C)NC(=O)[C@H](CC4CCCCC4)NC(=O)[C@H](CCN)NC(=O)[C@@H](CC(C)C)NC(=O)[C@H](C)N(C)C(=O)[C@H](CCCN)NC(=O)[C@H](Cc4ccc(-c5ccccc5)cc4)NC3=O)cc2)cc1` [Example 5095] ({CH2CO}-L[Phe(4-COOH)]D[Phe(3-CF3)][Bip(4'-NHAc)][Bip][Orn][NMeA][dL][Dab][Cha]VNC[Dab]-NH2; thioether N-14): 0.0061 µM; for `Cc1cccc(C[C@@H]2NC(=O)[C@H](CC(=O)O)NC(=O)[C@H](Cc3ccc(OCC(=O)O)cc3)NC(=O)[C@H](CC(C(=O)O)C(=O)O)NC(=O)CSC[C@@H](C(=O)N[C@@H](CCN)C(N)=O)NC(=O)[C@H](CCCN)NC(=O)[C@H](C(C)C)NC(=O)[C@H](CC3CCCCC3)NC(=O)[C@H](CCN)NC(=O)[C@@H](CC(C)C)NC(=O)[C@H](C)N(C)C(=O)[C@H](CCC(N)=O)NC(=O)[C@H](Cc3ccc(-c4ccccc4)cc3)NC(=O)[C@H](Cc3ccc(C(=O)O)cc3)NC2=O)c1` [Example 5169] ({CH2CO}-[Gla]Y(Carboxymethyl)D[Phe(3-Me)][Phe(4-COOH)][Bip]Q[NMeA][dL][Dab][Cha]V[Orn]C[Dab]-NH2; thioether N-14): 0.0089 µM.
